Assay results reported in patent US11833256B2, “Selective RARγ ligand-loaded nanoparticles for manipulation of targeted bone growth” (University Of Maryland, Baltimore, priority 2017, dated 2023).

How the values were obtained:
[1] = tested on: BMP signaling (phosphorylated Smad1/5, p38, Erk1/2); experiment: Immunoblotting of phosphorylated Smad1/5, p38 and Erk1/2 in ATDC5 cells / primary chondrocytes; assay type: cell-based, mouse; details: in the presence of 10 ng/mL rhBMP-2; each dose tested
Method: ATDC5 cells were grown until approximately 70% confluence in Dulbecco's modified Eagle's medium/Ham's nutrient mixture F-12 containing 5% fetal bovine serum (FBS). After serum deprivation (0.3% FBS) for 16 hours, cultures were treated with rhBMP-2 and/or retinoids for 60 minutes and then lysed in SDS-PAGE sample buffer. Cell lysates were denatured, separated onto 10% SDS-page gels and transferred to PVDF membranes (Millipore™, USA). Membranes were incubated overnight at 4° C. with antibodies against phospho-Smad1/5 (Cell Signaling Technology™, 9516, 1:1000), phospho-Smad1/5/8 (Cell Signaling Technology™, 9511, 1:1000), phospho-Erk1/2 (Cell Signaling Technology™, 4370, 1:500), or phospho-p38 (Cell Signaling Technology™, 4511, 1:500), followed by incubation with horseradish peroxidase (HRP)-conjugated secondary antibody (Cell Signaling Technology™, 7074, 1:2000). HRP activity was detected using a SuperSignal™ West Dura Extended Duration Substrate (Thermo Scientific™, USA). Membranes were re-blotted with antibodies against GAPDH (Santa Cruz Biotechnology™, sc-32233, 1:1000) for loading normalization.
RARγ was examined for whether it has cell-autonomous roles on BMP signaling in chondrocytes. […] Levels of phosphorylated Smad1/5, p38 and Erk1/2 were analyzed by immunoblotting. […]

[2] = tested on: pSmad1/5/8-positive cells (canonical BMP signaling); experiment: pSmad1/5/8 immunohistochemistry of ectopic BMP-Matrigel masses; assay type: in vivo, mouse; details: 4 mg/kg on day 1 and 3; samples day 5
Method: Tissue samples were fixed in 4% paraformaldehyde overnight at 4° C., decalcified in 10% EDTA (for calcified samples only), processed for paraffin embedding, and serially sectioned at 6 μm-thickness. Sections were stained with hematoxylin and eosin (HE) for general profiling or with Alcian blue at pH 1.0 and eosin counter-staining. For immunohistochemical analysis, antigen retrieval was performed with 0.1% pepsin in 0.02 N—HCl for 10 minutes, and sections were incubated with blocking solution (0.1 M NaPB, 1% BSA and 10% normal goat serum) for 1 hour and then with primary antibodies against phospho-Smad1/5/8 (Cell Signaling Technology™, 9511, 1:100) overnight at 4° C. The antibodies were visualized using rabbit specific HRP/DAB (ABC™) detection kit (Abcam™, ab64261). After detection, sections were counter-stained with 0.5% methyl green.
There are reciprocal antagonistic relationships between the retinoid and BMP signaling pathways in several biological systems. In addition, the suppression of chondrogenesis and heterotopic ossification by RARγ agonists involved inhibition of canonical BMP signaling. Thus, it became important to determine if and how BMP signaling was affected in the various experimental approaches here. […]
First, the distribution of phosphorylated Smad1/5/8-positive cells was determined within regenerating tibial bone defect areas in wild type and RARγ-null mice (FIG. 6A). […]

[3] = tested on: retinoic acid response element (RARE)-Luc; experiment: RARE-luc reporter assay in primary mouse chondrocytes; assay type: cell-based; details: 10 nM RA added, 0.3% FBS DMEM
Method: Primary mouse epiphyseal chondrocytes were isolated from neonatal C57BL/6J mice according to known methods (Yasuhara et al., Lab. Invest. 91(12):1739-1752, 2011) and were plated on 48- or 96-well plates and serum-starved overnight. Cultures were co-transfected with canonical BMP signaling reporter Id1-Luc or retinoic acid response element (RARE)-Luc plasmids and phRG-TK (Promega™) using Lipofectamine LTX™ and Plus™ reagent (Invitrogen™) according to the manufacturer's protocol. Twenty four hours later, cells were treated with rhBMP-2 and/or retinoid and incubated for an additional 24 hours. Cells then were harvested and subjected to dual luciferase assay (Promega™). Firefly luciferase activity was normalized to renilla luciferase activity generated by phRG-TK.
Monitoring activity of RARγ antagonists by RARE reporter assay. Cells were treated with indicated doses of CD2665 or MM11253. To detect the effect of RARγ antagonists in retinoid deficient culture condition (0.3% FBS DMEM), 10 nM RA was added to all cultures in experiments reported in FIG. 8A, FIG. 8B and FIG. 8C.
Primary mouse chondrocytes were isolated and transfected with the RARE-luc reporter gene by reverse transfection according to known methods. Details of the procedure are described in Cong et al., J. Biomater. Sci. Polym. Ed. 26(11):629-643, 2015. […]

SMILES | pSmad1/5/8 levels (immunoblot) [1] | pSmad1/5/8-positive cells in ectopic BMP-Matrigel masses [2] | RARE-luc reporter activity (antagonists) [3]
COCCOCOc1cc2ccc(-c3ccc(C(=O)O)cc3)cc2cc1C12CC3CC(CC(C3)C1)C2 [CD2665] | significantly enhanced | more numerous and obvious | inhibited RARE-luc reporter activity
CC1(C)CCC(C)(C)c2cc(C3(c4ccc5cc(C(=O)O)ccc5c4)SCCS3)ccc21 [MM11253] | significantly enhanced |  | inhibited RARE-luc reporter activity
